The values that follow come from ChEMBL document CHEMBL5604062, “ASAP - ZIKV NS2B-NS3 protease fluorescence dose response” (2024).

Where “and” joins values, the source holds several entries; their conditions need not be identical. Equal entries are not always repeated.

Chain of Nonstructural protein 3 (A0A024AXB9 whole entry): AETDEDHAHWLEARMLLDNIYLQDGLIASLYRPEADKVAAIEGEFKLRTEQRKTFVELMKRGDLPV

The test addresses Nonstructural protein 3 (Zika virus, UniProt A0A024AXB9). Put plainly: Functional biochemical assay to identify treatments for viral infectious disease that targets Zika NS2B-NS3 protease. Utilizing a direct enzyme activity measurement method, reading the fluorescence intensity is used to characterize the relative potency of inhibitors as IC50. The arrangement: species or system PRVABC59.
Broadly, the IC50 is the concentration that gives 50% inhibition. Turning to `Cc1nc(C2CCN(Cc3c[nH]c4ccccc34)CC2)sc1C(=O)O`, the 50% inhibitory concentration (IC50) came to 99.3 µM.
To `N[C@H]1C[C@H](CNC(=O)[C@@H](NC(=O)OCc2ccccc2)c2ccc(OCc3ccccc3)cc2)C1` belongs above 99.5 µM; to `NCc1cccc(NC(=O)[C@H]2Cc3ccccc3N2C(=O)OCc2ccccc2)c1`, above 99.5 µM; to `NCc1ccc(C[C@H](NC(=O)c2ccccc2)C(=O)Nc2cccc(CN)c2)cc1`, above 99.5 µM.
For the compound `O=C(O)c1ccc(C2CCN(Cc3c[nH]c4ccccc34)CC2)cc1`, the half-inhibitory concentration (IC50) was above 99.5 µM.
To `NC[C@H]1C[C@H](NC(=O)[C@@H](NC(=O)OCc2ccccc2)c2ccc(OCc3ccccc3)cc2)C1` belongs above 99.5 µM; to `NC(=O)C1CCN(Cc2c[nH]c3ccccc23)CC1`, above 99.5 µM.
`OCc1cc(C2CCN(Cc3c[nH]c4ccccc34)CC2)no1` showed a 50% inhibitory concentration (IC50) of 54.9 µM.
To `N[C@H]1CC[C@H](NC(=O)[C@@H](NC(=O)OCc2ccccc2)c2ccc(OCc3ccccc3)cc2)C1` belongs above 99.5 µM.
To `O=C(NC[C@H]1CCOC1)c1cc(Cl)ccc1NS(=O)(=O)c1ccc(Oc2ccccc2Cl)cc1` belongs above 99.5 µM; to `c1cc(CN2CCC(c3c[nH]c4cccnc34)CC2)c2cn[nH]c2c1`, above 99.5 µM.
To `NCc1cccc(NC(=O)[C@@H](NC(=O)OCc2ccccc2)c2ccc(F)c(F)c2)c1` belongs above 99.5 µM; to `O=S(=O)(c1c[nH]c2ccccc12)N1CCC(c2cnc3ccc[nH]c2-3)CC1`, above 99.5 µM.
Compound `NCc1cccc(NC(=O)[C@@H](NC(=O)OCc2ccccc2)c2ccc(F)cc2)c1` yielded an IC50 above 99.5 µM.
To `c1ccc2c(CN3CCC(c4c[nH]c5cccnc45)CC3)n[nH]c2c1` belongs 42.9 µM; to `C#CCn1ccnc(N2CC[C@H](CO)C2)c1=O`, above 99.5 µM.
Then `O[C@@H]1CN(Cc2c[nH]c3ccccc23)CC[C@@H]1c1ccccc1`, with 47.4 µM.
`c1cncc(C2CCN(Cc3c[nH]c4ccccc34)CC2)c1` gave an IC50 of 32.6 µM.
Regarding `c1ccc(-c2csc(C3CCN(Cc4c[nH]c5ccccc45)CC3)n2)cc1`, the midpoint of inhibition, the IC50, lay at 22.4 µM. This IC50 and that of the compound before are within 1.5-fold of each other.
`O=S(=O)(c1ccc(Oc2ccccc2Cl)cc1)n1ccc2cc(Cl)ccc21` returned a half-maximal inhibitory concentration (IC50) above 99.5 µM.
The compound `Cc1cc(C(=O)O)c(NS(=O)(=O)c2ccc(Oc3ccccc3)cc2)cc1F` registered an IC50 of 68.5 µM.
Then `c1ccc(C2CCN(Cc3c[nH]c4ccccc34)CC2)nc1`, with 34.7 µM; and `N[C@@H]1CC[C@H](NC(=O)[C@@H](NC(=O)OCc2ccccc2)c2ccc(OCc3ccccc3)cc2)C1`, with above 99.5 µM; and `CCn1ccc2cc(CN3CCC(c4c[nH]c5cccnc45)CC3)ccc21`, with above 99.5 µM.
To `NCc1cccc(CNC(=O)[C@@H](NC(=O)OCc2ccccc2)c2ccc(OCc3ccccc3)cc2)c1` belongs 19 µM and 11.6 µM.
As to `c1cnc2c(C3CCN(Cc4c[nH]c5ncccc45)CC3)c[nH]c2c1`, the IC50 was above 99.5 µM.
Then `NCc1cccc(NC(=O)[C@@H]2c3ccsc3CCN2C(=O)OCc2ccccc2)c1`, with above 99.5 µM.
In turn, `c1cnc2c(CN3CCC(c4c[nH]c5cccnc45)CC3)c[nH]c2c1` showed a half-inhibitory concentration (IC50) of 44.4 µM. This lies in the double-digit micromolar range.
Then `N[C@H]1CC[C@@H](NC(=O)[C@@H](NC(=O)OCc2ccccc2)c2ccc(OCc3ccccc3)cc2)C1`, with above 99.5 µM; and `O=C(O)c1cc(Cl)ccc1NS(=O)(=O)c1ccc(Br)cc1`, with above 99.5 µM; and `NCc1cccc(NC(=O)c2ccc(OCc3ccccc3)cc2)c1`, with above 99.5 µM.
Then `CN(C(=O)[C@@H](NC(=O)OCc1ccccc1)c1ccc(OCc2ccccc2)cc1)c1cccc(CN)c1`, with above 99.5 µM; and `N#CC1(c2ccccc2)CCN(Cc2c[nH]c3ccccc23)CC1`, with above 99.5 µM; and `NC1(c2cccc(NC(=O)[C@@H](NC(=O)OCc3ccccc3)c3ccc(OCc4ccccc4)cc3)c2)CCC1`, with above 99.5 µM.
Then `O=C(O)c1ccn(C2CCN(Cc3c[nH]c4ccccc34)CC2)n1`, with above 99.5 µM; and `O=C(NCc1cnn(CCO)c1)c1cccc2c1NC(=O)[C@]1(CCCN1)C2`, with above 99.5 µM.
